According to PMC10823475, “Design, Synthesis, and Evaluation of Inhibitors of Hedgehog Acyltransferase” (Journal of Medicinal Chemistry, 2024):
Where “and” joins values, the source holds several entries; their conditions need not be identical. Equal entries are not always repeated.

Legend:
[1] = in vitro; conditions: PAMPA
Experimental: (§3) Passive diffusion was estimated using the PAMPA method. […] The donor plate was a MultiScreen-IP Plate with 0.45 μm hydrophobe Immobilon-P Membrane (Millipore, #MAIPNTR10) and the acceptor plate was a MultiScreen 96-well Transport Receiver Plate (Millipore, #MATRNPS50). […] Acceptor pH was 7.4. All samples were analyzed against an external, matrix-matched, standard curve by LC-MS/MS with a Waters (Elstree, Herts. UK) Acquity H-class LC system coupled to a Waters TQ-S mass spectrometer. Permeability values (cm/s) were calculated using the following equation: [drawing 2] and VD = volume of donor; VA = volume of acceptor; area = surface area of the membrane · porosity.

[2] = biological target: T1, purified HHAT (Homo sapiens, UniProt Q5VTY9); experiment: Acyl-cLIP assay, inhibition of purified HHAT; format: biochemical; conditions: for IC50: purified HHAT, read-out: Acyl-cLIP Assay IC50 (CI95)
T1 construct: made in house
Procedure, shortened: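 Fluorescence polarization of FAM-labelled SHH N-terminal peptide palmitoylated by DDM-solubilized purified recombinant HHAT with palmitoyl-CoA, pH 6.5 MES buffer, read over 30 min. Initial rates normalized to DMSO and no-enzyme controls; IC50 from variable-slope sigmoidal fit of 1:1 serial dilutions; single-point % inhibition at 50 and 25 μM.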

[3] = Microsomal incubations, mouse liver microsomes; format: in vitro ADME; conditions: 1 μM
Experimental: (§1) Metabolic stability assays were performed using a Microlab Star liquid handling workstation (Hamilton Robotics, Bonaduz, Switzerland). Test compounds (1 μM, 1% DMSO) were preincubated at 37 °C for 10 min in 0.5 mg/mL female CD1 mouse and mixed gender human liver microsomes in 10 mM phosphate buffered saline (PBS; Sigma-Aldrich Company Ltd. (Dorset, UK)). Microsomes were purchased either from Sekisui XenoTech, LLC (Kansas City, USA) or BioreclamationIVT (Frankfurt Am Main, Germany). Reactions were initiated by the addition of NADPH (final concentration 1 mM). At 0, 15, and 30 min, aliquots were removed from each incubation and quenched in 3 volumes of ice-cold methanol containing olomoucine (Sigma-Aldrich, Dorset, UK) as an internal standard. […] The percentage metabolized was calculated by comparing peak area ratio (peak area test compound/peak area of internal standard) at t = 15 and 30 min versus t = 0 min.

[4] = Microsomal incubations, human liver microsomes; format: in vitro ADME; conditions: 1 μM
Experimental: as §1

[5] = MTS assay, cytotoxicity (72 h); format: cell-based; conditions: human, HEK293a SHH+ cells, 72 h; for CC50 at 72 h: read-out: MTS Assay (HEK293a SHH+) CC50 (CI95)
Procedure, shortened: (§2)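 Cells plated at 5000/well, cultured 24 h, then exposed to analogues (0.14–100 μM final) in DMEM/10% FBS for 72 h. MTS/PMS added for 3 h at 37 °C and absorbance read at 490 nm; data normalised to DMSO vehicle and puromycin (2 μg/mL) wells, curves fitted with a variable-slope sigmoidal model.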

[6] = system: HEK293a SHH+ cells; experiment: MTS assay, cytotoxicity (72 h); format: cell-based
Procedure, shortened: as §2

[7] = PAMPA parallel artificial membrane permeability assay; conditions: for recovery at 16 h, 10 µM / Papp at 16 h, 10 μM: PAMPA
Experimental: as §3

[8] = pH 5, PAMPA Papp pH 5, donor pH 5, 10 µM
[9] = pH 5, PAMPA Permeability Class pH 5, donor pH 5, 10 µM
[10] = pH 6.5, PAMPA Papp pH 6.5, donor pH 6.5, 10 µM
[11] = pH 6.5, PAMPA Permeability Class pH 6.5, donor pH 6.5, 10 µM
[12] = pH 7.4, PAMPA Papp pH 7.4, donor pH 7.4, 10 µM

T1 sequence (Q5VTY9 whole entry): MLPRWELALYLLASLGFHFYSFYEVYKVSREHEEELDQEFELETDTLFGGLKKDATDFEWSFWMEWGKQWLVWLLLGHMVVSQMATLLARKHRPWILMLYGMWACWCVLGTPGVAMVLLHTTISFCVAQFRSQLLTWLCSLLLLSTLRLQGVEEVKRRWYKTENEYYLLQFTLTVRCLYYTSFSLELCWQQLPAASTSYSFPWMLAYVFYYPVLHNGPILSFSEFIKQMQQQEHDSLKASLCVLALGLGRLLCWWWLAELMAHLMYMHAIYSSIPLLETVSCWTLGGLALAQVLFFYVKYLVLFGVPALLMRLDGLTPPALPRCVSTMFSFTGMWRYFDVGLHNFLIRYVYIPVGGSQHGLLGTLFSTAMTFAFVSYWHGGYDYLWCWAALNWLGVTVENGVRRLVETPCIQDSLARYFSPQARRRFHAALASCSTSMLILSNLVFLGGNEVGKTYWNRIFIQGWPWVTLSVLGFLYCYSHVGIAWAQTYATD

| inhibition at 25 µM [2] | inhibition at 50 µM [2] | IC50 [2] | MLM % metabolized after 15 min [3] | MLM % metabolized after 30 min [3] | HLM % metabolized after 15 min [4] | HLM % metabolized after 30 min [4] | recovery at 16 h, 10 µM ([7]; pH 5) | Papp at 16 h, 10 μM [7, 8] | Papp at 16 h, 10 μM [7, 9] | recovery at 16 h, 10 µM ([7]; pH 6.5) | Papp at 16 h, 10 μM [7, 10] | Papp at 16 h, 10 μM [7, 11] | recovery at 16 h, 10 µM ([7]; pH 7.4) | Papp at 16 h, 10 μM [7, 12] | PAMPA passive permeability ([7]; pH 7.4) | SMILES | CC50 at 72 h [5] | viability at 72 h, 12.5 µM [5] | viability at 72 h, 25 µM [5] | further results |
| --- | --- | --- | --- | --- | --- | --- | --- | --- | --- | --- | --- | --- | --- | --- | --- | --- | --- | --- | --- | --- |
|  |  |  |  |  |  |  |  |  |  |  |  |  |  |  |  | Cc1cc(=O)n(-c2ccccc2)n1C [Antipyrine] |  |  |  | recovery at 16 h, 10 µM ([1]; pH 5): 109%; Papp at 16 h, 10 μM ([1]; pH 5, PAMPA Papp pH 5): 6.5 ×10⁻⁶ cm/s; Papp at 16 h, 10 μM ([1]; pH 5, PAMPA Permeability Class pH 5): 5 to 20 ×10⁻⁶ cm/s; recovery at 16 h, 10 µM ([1]; pH 6.5): 119%; Papp at 16 h, 10 μM ([1]; pH 6.5, PAMPA Papp pH 6.5): 6.6 ×10⁻⁶ cm/s; Papp at 16 h, 10 μM ([1]; pH 6.5, PAMPA Permeability Class pH 6.5): 5 to 20 ×10⁻⁶ cm/s; recovery at 16 h, 10 µM ([1]; pH 7.4): 145%; Papp at 16 h, 10 μM ([1]; pH 7.4, PAMPA Papp pH 7.4): 7.3 ×10⁻⁶ cm/s; Papp at 16 h, 10 μM ([1]; pH 7.4, PAMPA Permeability Class pH 7.4): 5 to 20 ×10⁻⁶ cm/s |
| 55 ± 7% | 53 ± 3% | > 25 µM | 94.6% and > 90% | 99.8% | 45.2% | 55.9% | 95% | > 200 ×10⁻⁶ cm/s | > 20 ×10⁻⁶ cm/s | 92% | > 200 ×10⁻⁶ cm/s | > 20 ×10⁻⁶ cm/s | 89% | > 200 ×10⁻⁶ cm/s | high passive permeability | CC(=O)N1CCc2ccccc2C1c1ccccc1 (stereo not shown) [Compound 37, 1-(1-Phenyl-3,4-dihydroisoquinolin-2(1H)-yl)ethan-1-one] | 47.9 µM | 101 ± 5% | 94 ± 6% | CC50 ([6]; 72 h, read-out: MTS Assay (HEK293a SHH+) CC50 (CI95)): > 50 µM; Papp at 16 h, 10 μM ([7]; pH 7.4, PAMPA Permeability Class pH 7.4, donor pH 7.4, 10 µM): > 20 ×10⁻⁶ cm/s; PAMPA permeability ([7]; over the full pH range tested): high permeability |
| 91 ± 5% | 95 ± 5% | 7.01 µM | 100.0% and > 90% | 100.0% | 30.3% | 49.2% | 91% | 1.3 ×10⁻⁶ cm/s | < 5 ×10⁻⁶ cm/s | 45% | 24.4 ×10⁻⁶ cm/s | > 20 ×10⁻⁶ cm/s | 17% | 53.9 ×10⁻⁶ cm/s | high passive permeability | CCC(C)CNCC(=O)N1CCc2ccccc2C1c1ccccc1 (stereo not shown) [Compound 38, 2-((2-Methylbutyl)amino)-1-(1-phenyl-3,4-dihydroisoquinolin-2(1H)-yl)ethan-1-one] | 8.1 µM | 69 ± 4% | 33 ± 6% | LLEAcyl-cLIP ([2]; from Acyl-cLIP IC50 and clogDpH7.4): 2.82; toxicity to HEK293a SHH+ cells [6]: toxic |
